Series [1] concerns Escherichia coli strain FS06112. The experiment in a line: Glycerol consumption of FS06112 shakeflask cultures in the presence of extraction solvent. Type of series: cell-based. How it is done:
(§1) A glycerol stock of strain FS06112 was used to inoculate 500 ml baffled shake flasks that contained 100 ml modified M9 medium consisting of 4.5 g/l glycerol, 1.5 g/l yeast extract, 3 g/l K2HPO4, 6.8 g/l Na2HPO4, 0.5 g/l NaCl, 1 g/l NH4C, 50 μg/ml ampicillin and 50 μg/ml kanamycin; the initial pH was set at 7.0. The shakeflasks were incubated at ambient temperature, and were mixed with a magnetic stirring bar at approximately 150 rpm. After 5 hours, isopropyl β-thiogalactopyranoside (IPTG) was added at a final concentration of 4 mM, as an inducer of the T7 promoter that was in front of each of the three genes TAL, 4CL and VST. After one hour an aliquot of 10 ml of the solvent octyl acetate was added to one shakeflask that is now referred to as FS06112-solvent; the shakeflask culture without solvent will be referred to as FS06112-control.
as §1, with “β-thiogalactopyranoside(IPTG)” for “β-thiogalactopyranoside (IPTG)”, “methyl decanoate” for “octyl acetate”
A glycerol stock of strain FS06112 was used to inoculate 500 ml baffled shake flasks that contained 100 ml modified M9 medium consisting of 4.5 g/l glycerol, 1.5 g/l yeast extract, 3 g/l K2HPO4, 6.8 g/l Na2HPO4, 0.5 g/l NaCl, 1 g/l NH4C, 50 μg/ml ampicillin and 50 μg/ml kanamycin; the initial pH was set at 7.0. […]

For series [2] the following is noted: partition coefficient between water and octanol; cited from earlier work.
Series [3] in a line: Stilbenoid levels in two-phase batch culture of PALCPR-evolved-III with octylacetate (HPLC). The conditions noted are these: for Upper phase (0.1 L) % total: 100 ml octylacetate from start; for Lower phase (1 L) % total: aqueous phase, octylacetate. Set-up: species or system S. cerevisiae. How it is done:
(§2) A Phenomenex (Torrance, Calif., USA) Luna 3 micrometer C18 (100×2.00 mm) column was used at 60° C. As mobile phase a gradient of acetonitrile and milliq water (both containing 50 ppm trifluoroacetic acid) was used at a flow of 0.4 ml/min. The gradient profile was linear from 15% acetonitrile to 100% acetonitrile over 20 min.
The stirrer speed was instantly set at 800 rpm. […] The strain is referred to as PALCPR-evolved-III.
(§3) For the determination of stilbenoids, an aliquot of 25 ml of cell broth was collected, and phase separation was initiated by centrifugation at 3500 g for 5 minutes. Both the upper octylacetate phase and the lower aquous medium phase were collected separately with a pipet and directly analyzed for their content of stilbenoids and intermediates by HPLC.

A short description of series [4]: Stilbenoid levels in two-phase batch culture of PALCPR-evolved-II with octylacetate (HPLC). Set-up: species or system S. cerevisiae. The conditions noted are these: for Upper phase (0.1 L) % total: 100 ml octylacetate from start; for Lower phase (1 L) % total: aqueous phase, octylacetate. Here is the method:
as §2
However, the medium now only contained 100 g/l galactose and did contain 100 ml of octylacetate from the beginning of the fermentation. In addition, the stirrer speed was instantly set at 800 rpm. […] The strain is referred to as PALCPR-evolved-II.
as §3

The nature of series [5]: Stilbenoid levels in two-phase batch culture of evolved PALCPR (PALCPR-evolved-I) with octylacetate (HPLC). Set-up: species or system S. cerevisiae. The conditions noted are these: for Upper phase (0.1 L) % total: 100 ml octylacetate on 1 L medium; for Lower phase (1 L) % total: aqueous phase, octylacetate. How it is done:
as §2
(§4) For that, cells of the culture described in the previous example were harvested during mid-exponential-phase and stored at −80° C. in 15% glycerol and subsequently a fermentor, containing the same medium as described in the previous example with 10 g/l glucose and 100 g/l galactose, was then inoculated with cells of said PALCPR-solvent culture. The cells were allowed to fully consume the glucose at a stirring speed of 1000 rpm with an average dissolved oxygen content of above 70% of saturated air. At the onset of galactose consumption, the stirring rate was turned down to 300 rpm, after which slowly 100 ml of octylacetate was added.
as §3

Series [6] deals with S. cerevisiae strain PALCPR. The experiment in a line: Growth of evolved PALCPR strains in the presence of extraction solvent (CO2 production). Type of series: cell-based. Here is the method:
as §4, with “The cells of the PALCPR-solvent culture described in the previous example were taken as starting point because the presence of the solvent mixture would possibly have already evoked adaptation of cells to solvents. For” for “For”
Galactose consumption indeed commenced again. A small arrest in CO2 production again occurred after 20 hours which, however, recovered after 5 hours, after which the cells grew exponentially with concomitant production of CO2, consumption of galactose within less than 40 hours. Based upon the CO2 production the specific growth rate was estimated to be 0.062 1/h (FIG. 2). The final biomass concentration was 21.6 g/l.
In order to further improve said strain in terms of length of lag-phase and growth rate, a 25 ml aliquot of the exponentional growing PALCPR-evolved-I strain was used to inoculate a fermentor, containing a similar medium as described in the previous example. However, the medium now only contained 100 g/l galactose and did contain 100 ml of octylacetate from the beginning of the fermentation. In addition, the stirrer speed was instantly set at 800 rpm. Upon inoculation of the fermentor, consumption of galactose only commenced after approximately 40 hours, indicated by a slow increase in CO2 signal, a decrease in dissolved oxygen and addition of base. Indeed the cells continued to grow exponentially with concomitant production of CO2, and consumed the galactose within less than 90 hours. Based upon the CO2 production the specific growth rate was estimated to be 0.041 1/h (FIG. 3). The final biomass concentration was 21.5 g/l. The strain is referred to as PALCPR-evolved-II.
Therefore, to further improve said strain in terms of both length of lag-phase and growth rate, a 50 ml aliquot of the exponentional growing PALCPR-evolved-II strain was used to inoculate a fermentor, containing a similar medium as described in the previous example (thus containing 100 g/l galactose 100 ml of octylacetate from the beginning of the fermentation). The stirrer speed was instantly set at 800 rpm. Upon inoculation of the fermentor, consumption of galactose already commenced after less then 20 hours, indicated by a slow increase in CO2 signal, a decrease in dissolved oxygen and addition of base. Indeed the cells further grew exponentially with concomitant production of CO2, and now consumed the galactose within approximately 50 hours. Based upon the CO2 production the specific growth rate was estimated to be 0.091 1/h (FIG. 4). The final biomass concentration was 18.9 g/l. The strain is referred to as PALCPR-evolved-III.
The evolved PALCPR-evolved-III strain described in the previous example was grown in the presence of nonyl-acetate, a similar solvent as octylacetate with one additional carbon atom. A 1 ml aliquot of a glycerol stock that was made from an exponentional growing PALCPR-evolved-III strain was used to inoculate a fermentor, containing a similar medium as described in the previous example, containing only 100 g/l galactose and 100 ml of nonyl-acetate from the beginning of the fermentation. The stirrer speed was instantly set at 800 rpm. Upon inoculation of the fermentor, consumption of galactose only commenced after approximately 70 hours, indicated by a slow increase in CO2 signal, a decrease in dissolved oxygen and addition of base. […]

Series [7] is described as follows: Stilbenoid levels in batch culture of non-evolved FS09229 with nonyl-acetate vs control (HPLC). Set-up: species or system S. cerevisiae. The conditions noted are these: FS09229-solvent; for Upper phase (0.1 L) % total: 100 ml nonyl-acetate; for Lower phase (1 L) % total: aqueous phase, nonyl-acetate. Here is the method: as §2
The non-evolved FS09229 strain described in previous examples was grown in the presence of nonyl-acetate. […] The stirrer speed was instantly set at 800 rpm. […] The cultivation will be referred to as FS09229-solvent. […] The cultivation will be referred to as FS09229-control.
(§5) For the determination of stilbenoids, an aliquot of 25 ml of cell broth was collected, and phase separation was initiated by centrifugation at 3500 g for 5 minutes. Both the upper nonylacetate phase and the lower aqueous medium phase were collected separately with a pipette and directly analyzed for their content of stilbenoids and intermediates by HPLC.

Series [8] is described as follows: Stilbenoid levels in batch culture of PALCPR-evolved-III with nonyl-acetate vs control (HPLC). The conditions noted are these: for Upper phase (0.1 L) % total: PALCPR-solvent (PALCPR-evolved-III), 100 ml nonyl-acetate. Also on record: species or system S. cerevisiae. How it is done: as §2
The stirrer speed was instantly set at 800 rpm. […] The cultivation will be referred to as PALCPR-solvent. […] The cultivation will be referred to as PALCPR-control.
as §5

Series [9] in a line: Stilbenoid levels in batch culture of solvent-adapted PALCPR, dodecane/octylacetate two-phase vs control (HPLC). Set-up: species or system S. cerevisiae. The conditions noted are these: for Upper phase (0.3 L) % total: 200 ml dodecane + 100 ml octylacetate on 1 L medium; for Lower phase (1 L) % total: aqueous medium phase, dodecane/octylacetate. Here is the method:
as §2

Where [10] appears, read: PALCPR-evolved-II, 100 ml solvent from start, 800 rpm.
Where [11] appears, read: PALCPR-evolved-III, 100 ml solvent from start, 800 rpm, fresh inoculum.

For orientation: logP means the decadic logarithm of the partition coefficient of the neutral form, usually between octanol and water.

Where two headings read alike, the source gives them in different places.

In the case of `CCCCCCCCCC(=O)OC` [methyl decanoate], the “time in which the glycerol was consumed” value in [1] is no more than 48 h. Further, the logP in series [2] is given as 4.3.

Take `O=C(O)/C=C/c1ccc(O)cc1` [Coumaric acid, 4-coumaric acid]: the entries for the “Upper phase (0.1 L) % total” value in series [3], in series [4] and in series [5] were 40.0 % total, 59.3 % total and 18.0 % total, respectively. The “Lower phase (1 L) % total” value amounted to 60.0 % total in series [3], 40.7 % total in [4] and 82.0 % total in [5].

`CCCCCCCCOC(C)=O` [n-octyl acetate]: the entries for the “lag-phase until galactose consumption commenced” value in series [6] (setting [10]) and in [6] (setting [11]) were “approximately 40 hours” and less than 20 h, respectively. Moreover, the specific growth rate turned out to be 0.041 h⁻¹ in series [6] (setting [10]); 0.091 h⁻¹ in series [6] (setting [11]); 0.062 h⁻¹ in series [6] (cells from PALCPR-solvent culture (PALCPR-evolved-I), 100 ml solvent added to 1 L at onset of galactose consumption). In addition, the “time until cells started to grow after solvent addition (lag-phase)” value in series [6] (cells from PALCPR-solvent culture (PALCPR-evolved-I), 100 ml solvent added to 1 L) is reported as “approximately 170 hours”. The “time in which 2.5 g/l of glycerol was consumed” value in series [1] was no more than 24 h. Also, in series [2], the logP is recorded as 3.7.

On to `O=C(O)C=Cc1ccccc1` [Cinnamic acid, cinnamic acid], for which the “Upper phase (0.1 L) % total” value in [7] came to 42.2 % total; in [7] (listed as cinnamic acid), 42 % total; in series [3], 71.3 % total; in series [8], 29.6 % total; in series [8] (listed as cinnamic acid) it was 25 % total; in [4] it was 88.6 % total. Moreover, in series [5], the “Upper phase (0.1 L) % total” value was found to be 52.5 % total. The “Lower phase (1 L) % total” value in [7] turned out to be 57.8 % total; in series [3], 28.7 % total; in [8] (PALCPR-solvent, aqueous phase, nonyl-acetate), 70.4 % total; in [4], 11.4 % total; in series [5], 47.5 % total; in series [9], 43.1 % total. Besides, the “Upper phase (0.3 L) % total” value in series [9] is on record as 56.9 % total.

Regarding `CCCCCCCCCC(C)=O` [undecanone], in series [1] (FS06112-solvent, 10 ml solvent on 100 ml medium, control 30 hours), the “time in which the glycerol was consumed” value was no more than 48 h.

For `Oc1cc(O)cc(/C=C/c2ccccc2)c1` [Pinosylvin, pinosylvin], the “Upper phase (0.1 L) % total” value in series [7] came to 100 % total; in [3] it was 90.3 % total; in [3] (listed as pinosylvin), 100 % total; in series [4], 100 % total; in series [5], 100 % total. The “Lower phase (1 L) % total” value is 0.0; 0.0 % total in [7]; 9.7 % total in series [3]; 0; 0 % total in series [4]; 0; 0 % total in [5]; 4.8 % total in series [9]. Moreover, the entries for the “Upper phase (0.3 L) % total” value in [9] and in series [9] (listed as pinosylvin) were 95.2 % total and 95 % total, respectively.

Values taken from patent US8518677B2, “Microbial bioreaction process” (Evolva Sa, priority 2007, dated 2013).
